Measurements reported in US6803362B2, “Heterocyclic compounds” (Ortho-McNeil Pharmaceutical inc., priority 2001, dated 2004).

Tested on: Croton Oil Induced Topical Inflammation in Mice
Test: Croton oil induced topical inflammation in mice (ear swelling)
Assay type: in vivo, mouse
Conditions: 10 mg/kg s.c.; vs vehicle group; 6 h
Method: Male or female ICR derived mice weighing 22±1 g were used. Space allocation for 5 animals was 45×23×15 cm. Mice were house in APEC R cages. All animals were maintained in a controlled temperature (22° C.-24° C.) and humidity (60%-80%) environment with 12 h light/dark cycles. Free access to standard lab chow for Mice (LabDiet Rodent Diet, PMI Nutrition International, USA) and tap water was granted.
Acetone (Wako, Japan), Croton oil (Sigma, USA), Indomethacin (Sigma, USA) and Pyrogen free saline (Astar, Taiwan).
Groups of 5 ICR derived male mice weighing 22±1 g were used. […] Ear swelling was measured by Dyer model micrometer gauge 6 h after croton oil as an index of inflammation.

CN1CCN(C(=O)c2cc3cc(Cl)ccc3[nH]2)CC1 [Compound 1, (5-Chloro-1H-indol-2-yl)-(4-methyl-piperazin-1-yl)-methanone]
% inhib (ear swelling): (−28%)
